Results on eight compounds are retold here after patent EP0349681A1, “Methods for treating hydrocarbon recovery operations and industrial waters” (PETROLITE CORPORATION, priority 1988, dated 1990).

A short description of assay [1]: CO2 brine sparge test for sweet corrosive systems. Conditions: 50 ppm active component, 24 hour test, 3.5 hours precorrosion, by weight loss. As for the experimental part:
The C02 brine sparge test is a reliable, quick test to screen compounds as corrosion inhibitors in "sweet" corrosive systems. A laboratory brine solution is sparged with stirring with 99.9% grade C02 for about one hour before immersing cleaned and weighed corrosion coupons. A M-1010 Pair@ meter was used to monitor the corrosion rate of each test cell. After one to two hours the corrosion rate reached a "steady state", but a precorrosion period of 3.5 hours was used for consistency before the test inhibitor was added. The precorroding period in the […] brine solution is very important. This provides a precor- roded test surface thereby minimizing surface preparation variations and also provides at least a minimal corrosion product layer without inhibitor in it against which the test inhibitor must work. This step is important, because in the equipment, the inhibitor is only rarely used from day one and then it is used on rusted steel and not freshly sand-blasted surfaces.
The inhibitors were injected below the brine surface at 50 ppm based on the active component. The 24 hour test period was monitored with a M-1010 PAIR meter as a "back-up", but the corrosion rates and percent protection were determined by weight loss measurements.

Assay [2] has as its system Aerobes. Briefly: standard laboratory biocide screening, mixed culture. It counts as cell-based. Conditions: 24 hours exposure, Standard Plate Count, Difco Plate Count Agar, 35° C, read-out: Aerobes (% killed). As for the experimental part: (§1) The compound of Example 4 was tested for efficacy using a standard laboratory screening procedure. The compounds were tested against a mixed culture of aerobic and anaerobic bacteria, including sulfate reducers. The test medium consisted of aged artificial sea water with 0.1 gms/liter of nutrient broth added. The medium was purged with nitrogen to remove oxygen and inoculated with 10 mis/liter of a mixed culture of aerobic and anaerobic bacteria obtained from oilfield waters. Aliquots (50 ml) were dispensed into sterile, nitrogen-filled serum vials. Concentrations of the test compounds were prepared by adding the appropriate amount of a 5% solution of the compound to 50 mls of test medium. After 24 hours, exposure levels of aerobic, anaerobic and sulfate reducing bacteria were enumerated.

Assay [3] relates to Anaerobes. The assay is described as above. Conditions: 800 ppm, 24 hours exposure, extinction dilution in Difco Fluid Thioglycollate broth, 35° C. The format is cell-based. As for the experimental part: as §1
The subject of assay [4] is Sulfate Reducers. The description is as above. The format is cell-based. Conditions: 800 ppm, 24 hours exposure, extinction dilution in modified Sulfate API broth, 35° C. As for the experimental part: as §1

Regarding `CCCCN(CCCC)C(=S)S` [Example 1], the “Percent Protect” value in assay [1] came out at 92.

With `S=C(S)NCCNC(=S)S` [Example 2], the “Percent Protect” value in assay [1] turned out to be 85.

Regarding `S=C(S)NCCCN1CCN(CCCNC(=S)S)CC1` [Example 3], in assay [1], the “Percent Protect” value came out at 96.

For `S=C(S)NCCCCC(CCCNC(=S)S)CNC(=S)S` (centres unmarked) [Example 4], in assay [1], the “Percent Protect” value worked out at 99. Besides, in assay [2], the killing at 800 ppm was determined as 99%. Further, the “Surviving Bacteria/ml Anaerobes” value in assay [3] was 10 mL⁻¹. Moreover, in assay [4], the “Surviving Bacteria/ml Sulfate Reducers” value was determined as 10 mL⁻¹.

Turning to `S=C(S)NCCN(CCN(CCN(CCNC(=S)S)C(=S)S)C(=S)S)C(=S)S` [Example 5], the “Percent Protect” value in assay [1] turned out to be 97.

For the compound `S=C(S)NCCCCCCN(CCCCCCNC(=S)S)C(=S)S` [Example 6], the “Percent Protect” value in assay [1] amounted to 96.

With `S=C(S)NCCN(CCNC(=S)S)C(=S)S` [Example 7], the “Percent Protect” value in assay [1] is reported as 92.

For the compound `CCCCCCCCN(CCCNC(=S)S)C(=S)S` [Example 8], the “Percent Protect” value in assay [1] was determined as 96.
